Measurements from PMC3871574, “Genes Involved in Degradation of para-Nitrophenol Are Differentially Arranged in Form of Non-Contiguous Gene Clusters in Burkholderia sp. strain SJ98” (PLoS ONE, 2013).
Like-named read-outs stand apart in the source and are kept apart here.

Tested on: PnpA (His-6-PnpA; p-nitrophenol 4-monooxygenase, PnpM)
Assay: spectrophotometric monooxygenase assay, Michaelis-Menten
Format: biochemical, Burkholderia sp. SJ98
Source text: spectrophotometric monooxygenase assay, Michaelis-Menten on PnpA (His-6-PnpA; p-nitrophenol 4-monooxygenase, PnpM)

Row | SMILES | Km | Km (fixed NADH, 0.02 mM FAD, 50 mM phosphate pH 7.4, PNP 12.5-250 µM)
1 | NC(=O)C1=CN([C@@H]2O[C@H](COP(=O)(O)OP(=O)(O)OC[C@H]3O[C@@H](n4cnc5c(N)ncnc54)[C@H](O)[C@@H]3O)[C@@H](O)[C@H]2O)C=CC1 [NADH] | 96 ± 7.74 µM | –
2 | O=[N+]([O-])c1ccc(O)cc1 [PNP, p-nitrophenol] | – | 35.4 ± 5.95 µM
